Reference: patent US11987835B2, “Amino acid-sensing diguanylate cyclase and methods of use” (priority 2019, dated 2024)

Key:
[1] = test system: Aer01 immigration into GF zebrafish; test: Migration rate experiments; format: in vivo; conditions: WT +/- valine
Method: Migration rate experiments. Strains were grown, shaking, overnight in TSB, at 30° C. Overnight cultures were pelleted and washed in sterile EM, then diluted to 1:100 in sterile EM, and incubated at room temperature for ˜2 hrs. If amino acid SpdE ligands were tested, amino acids were added to the prepared inoculum and fish flasks before the 2 hr incubation. GF zebrafish (5 or 6 dpf) inoculated with the cultures to yield ˜10^5 CFU/ml. The fish were then split into replicate flasks containing 10 fish and 10 ml inoculated flask EM. An EM sample was taken and plated immediately to quantify CFU/ml of the inoculating strain. […] After 24-48 hr incubation, colonies on plates were counted.
To more directly investigate differences in immigration rate, migration rate experiments were performed. Fish were mono-associated (inoculated with individual strains) via the EM, then 10 fish were dissected every 60 minutes, and the fraction of fish colonized at each time point was calculated (FIG. 3). […] This experiment assessed the ability of Aer01 variants to migrate into GF fish from the environment during initial colonization. […] After allowing 15 hrs for Aer01 to migrate from donor to recipient fish, the fish were dissected and determined the abundance of Aer01 in all fish within each flask (FIG. 6D).

Aer01 [2] = test: Biofilm assay (crystal violet); format: cell-based, Aeromonas veronii; conditions: WT Aer01, 1 mM ligand, 48 hrs
Method: Biofilm Assay. […] To the wells of a sterile 96-well plate (Corning, flat-bottom, #3595), 150 μL of each resuspended culture was added, in triplicate. A blank control well was added for each condition using the appropriate uninoculated media. This plate was incubated at 30° C., stationary, for 48 hours. After incubation, the biofilms were quantified using a standard crystal violet biofilm staining procedure. […] Briefly, the supernatant was removed from each well, then the wells gently rinsed three times with 150 μL sterile EM. Then, 150 μL 0.1% crystal violet was added to each well and the plate was incubated at room temperature for 10 minutes, followed by five rinses with 150 μL sterile EM. To destain, 150 μL 95% ethanol was added to each well and the plate was incubated at room temperature for 10 minutes. Each well was mixed well and the contents transferred to a clean 96-well plate and the absorbance (570 nm) was read on a FLUOstar Omega microplate reader (BMG Labtech, Offenburg, Germany).

[3] = test system: Aer01 SpdE tandem PAS/dCache region (residues 37-287); test: Thermofluor (thermal shift) assay, Aer01 SpdE; format: binding, Aeromonas veronii; conditions: 10 mM pure amino acid, replicate ΔTm data
Method: Thermofluor Assay. The periplasmic portion of SpdE was cloned, expressed and purified in E. coli. Thermofluor assays were performed using a Thermo Fisher Scientific StepOnePlus Real-time PCR instrument. Each 20 μL sample contained 0.1 mg/mL SpdE protein, 4× SYPRO Orange dye, 165 mM NaCl, 80 mM Tris pH 7.5 and 10 mM ligand (free amino acid dissolved in water). All samples were done in triplicate and repeated 2-3 times on different days. All reagents and steps were performed at 4° C. and placed in 96 well PCR plates. The PCR plate was slowly heated (˜0.03° C./sec) from 4° C. to 80° C. in the StepOnePlus instrument and fluorescent measurements were taken every 8.5 sec. The resultant thermal shift curves were analyzed to find the inflexion points, which correspond to the melting temperature (Tm) of the protein (with or without ligand). Inflexion points were determined in Microsoft Excel by calculating the half way point between the minimum fluorescence value prior to fluorescence increase and the maximum fluorescence value. The Tm difference between protein with and without ligand was calculated and plotted to determine the thermal stability shift as a proxy for ligand binding.
In order to identify SpdE ligands, a thermal shift assay was conducted using 96-well Biolog Phenotype MicroArray plates as a high-throughput approach to screen compounds for ligand candidates. Using heterologously expressed and purified tandem PAS/dCache region of the protein (residues 37-287), ˜200 compounds were screened for ones that conferred a significant shift in protein thermal stability (see Table 4). […] For each curve, the melting temperature (Tm) was determined (brown circles), which corresponds to the midpoint of protein unfolding. The ΔTm (difference between test Tm and water control Tm) was calculated for each amino acid condition.

Aer01 [4] = format: cell-based, Aeromonas veronii; conditions: WT Aer01, 1 mM ligand versus WT without ligand, mean
Method: Exploration Assay. Overnight cultures (TSB) of Aer01 Strains were pelleted (1 mL), and resuspended in 1 ml sterile EM. […] The cultures were incubated, shaking, at 30° C. for 3 hours. An aliquot of each culture was passed through a 0.2 μM filter (Corning® Costar® Spin-X® centrifuge tube filters) to generate cell-free supernatant. To a sterile 96-well plate round-bottom plate, 80 μL of unfiltered culture was added to each well to include five replicates for each condition. To another sterile 96-well plate round-bottom plate, 80 μL of the cell-free supernatant was added to each well to replicate the layout of the culture plate. Using a Rainin Liquidator™ 96-channel benchtop pipettor, 5 μL of the cell-free supernatant was pulled up into 20 μL Rainin pipette tips. These tips then were lowered down into the wells of the culture plate so the tips were submerged to half the depth of the culture volume in the wells. This set-up was incubated at room temperature for 30 min, during which time the cells in the culture can swim up into the supernatant in the pipette tips. After incubation, the contents of the tips were ejected into the wells of a sterile 96-well plate (Corning, flat-bottom, #3595) to which 195 μL of sterile TSB medium was added to each well. This plate was immediately placed in a FLUOstar Omega microplate reader (BMG Labtech, Offenburg, Germany) and growth curves monitored by measuring absorbance (600 nm) every 10 min for 12-16 hrs, with 30° C. incubation and constant shaking. The growth curves were plotted and the times at which the absorbance passed 0.5 was determined for each plot. The time difference between a particular condition and a reference condition (as indicated in FIG. 5C) represents the “exploration response” of Aer01 in that condition.
An “exploration assay” was used to measure population-level motility. For this assay Aer01 was incubated in the presence/absence of amino acid ligand (1 mM) for˜4 hrs, then the culture was added to the wells of a 96-well plate and pipette tips filled with the cell-free supernatant of the same cultures was lowered into the wells (FIG. 13). During a 30 min incubation period the Aer01 cells in the wells swam up into the pipette tips. […] To quantify the number of cells in the pipette tips after the 30 min exploration time, the contents of the pipette tips were ejected into the wells of a 96-well plate containing rich media and growth curves were monitored. […] This time difference between conditions, “exploration response,” was calculated to compare across many strains and conditions (FIG. 12C).

[5] = test system: SpdE diguanylate cyclase activity in Aer01; test: Intracellular cyclic di-GMP quantification; format: cell-based, Aeromonas veronii; conditions: WT Aer01, 1 mM amino acid, ~4 hrs, versus no ligand
Method: Intracellular cyclic di-GMP quantification. […] Cultures were incubated, shaking, at 30° C. for 4 hours. Sample OD600 was measured and the entire volume pelleted. Sample pellets were resuspended in 300 μL ice cold extraction buffer (40/40/20 acetonitrile/methanol/water+0.1 N formic acid), iced for 30 min, then pelleted at maximum speed in tabletop microcentrifuge for 10 min. The supernatant was transferred to a new tube and stored at −80° until being vacuum concentrated until completely evaporated.
Dried samples were resuspended in 100 μL Ultra Performance liquid chromatography-grade water and centrifuged for two minutes at 18,000×g (Eppendorf® Centrifuge 5242R). The debris-free supernatants were moved to LCMS Certified Clear Glass 12×32 mm screw neck max recovery vials (Waters®). Ten microliters of each sample were analyzed using LC-MS/MS on a Quattro Premier XE mass spectrometer coupled with an Acquity Ultra Performance LC system (Waters®). Cyclic di-GMP was detected with electrospray ionization using multiple reaction monitoring in negative-ion mode at m/z 689.16→344.31. […]
In the case of SpdE, ligand binding to the PAS/Cache was hypothesized to regulate SpdE diguanylate cyclase activity, thereby altering intracellular levels of c-di-GMP. To test this, WT and ΔspdE Aer01 were incubated in the presence or absence of amino acid ligands for ˜4 hrs, then pelleted and lysed the cells to extract and quantify intracellular c-di-GMP.

[6] = test system: Aer01 colonization of larval zebrafish gut; test: Bacterial competitions in vivo (competitive index); conditions: GF zebrafish, ligand supplemented into inoculum and flask medium (1 mM proline)
Method: Bacterial competitions in vivo. For in vivo bacterial competitions, strains (purified evolved isolates, or Aer01 genetic variants) were grown overnight in TSB from freezer stocks. 1 ml of the overnight cultures were pelleted (8,700 rcf, 2 min), then resuspended in 1 ml sterile EM. Competing strains were mixed, then added to flasks of 4 dpf GF (or CV fish) WT fish at ˜10^6 CFU/ml. For all competitions, sfGFP-tagged Aer01 was used as the “reference” strain. […] At 7 dpf, fish intestines were dissected as described above, and each intestine transferred into a 1.6 ml tube containing 500 μl sterile EM and ˜100 μl bullet beads, then bullet blended as described above. Homogenized samples were diluted appropriately in sterile EM, spread plated on TSA plates, incubated at 30° C. for 1-2 days, and the colonies counted. Strains were differentiated by fluorescence microscopy. Competitive index (CI) was calculated by dividing the strain ratio (test strain divided by reference strain) in the gut at the end of the competition by the strain ratio in the inoculum ((test/reference)gut/(test/reference)inoculum) (FIG. 1). The limit of detection is 5 CFU/gut; for samples were one strain was below the limit of detection, the abundance was set to 5 CFU in order to calculate a CI; this was the case for few of the samples.
To test whether WT motility, and therefore immigration into the host, could be increased with addition of ligands, competitions were performed as previously described, this time supplementing the inoculum and flask medium with SpdE ligand.

Aer01 [7] = format: cell-based, Aeromonas veronii
Method: Live imaging and quantification of Aer01 motility. […] EM containing proline or valine (pH adjusted to 7.8 with HCl/NaOH) was added to the wells to generate the desired final concentrations of amino acid (0, 1 nM, 10 nM, 100 nM, 1 μM, or 1 mM) and cell densities of OD 0.1, each performed in triplicate. The tray was covered by parafilm and incubated at 30° C. for 5 hours. Cells were imaged between hour 5-6. Prior to imaging, bacterial samples were moved to a temperature-controlled box housing the microscope, heated to 30° C. 2 ul of bacteria from treatments were applied to a well slide (MP Biomedicals 10-well multitest slides #096041805), covered with a coverslip, and imaged immediately. Videos of bacteria were captured using a Nikon Eclipse Ti inverted microscope on the GFP channel using 20× magnification at 39 frames per second. Videos of treated bacteria were analyzed with particle tracking software (Parthasarathy, Nature Methods 9:724-236, 2012) using these settings: “objects” were identified using bpfilter 3, nsize 7, and gradobjsize 0. A standard threshold of 3.99-6 was applied, depending on the degree of background. Motile bacteria were defined as objects tracked over at least 1 s (39 frames) with a standard deviation in position of pixels/frame of at least 1.
To do this, Aer01 was incubated in medium+/−ligand (ranging between 0 and 1 mM) then wet-mounted and imaged on an inverted microscope.

CC(C)[C@H](N)C(=O)O [valine]
immigration rate of WT Aer01 into fish [1]: migrated into the fish faster
biofilm formation (Aer01 [2]): more robust biofilms in the absence of ligand
thermal shift (ΔTm) in words [3]: largest shifts
exploration response (Aer01 [4]): 13.2 min
intracellular c-di-GMP [5]: significantly lower
median CI (competitive index) of ΔspdE versus WT [6]: 7
number of motile cells (Aer01 [7]; WT Aer01, 1 μM and 1 mM ligand): striking increase
motility (Aer01 [7]; WT Aer01, below 1 μM ligand): little increase
